Experimental data: ChEMBL document CHEMBL4507279, “Data for DCP probe BI-9627” (2021)

Tests used:
[1] = target: Phosphatidylinositol 3-kinase C2 domain-containing subunit gamma (Homo sapiens) (UniProt O75747); conditions: Compound concentration 1000.0 nM
[2] = target: Phosphatidylinositol 4-kinase beta (Homo sapiens) (UniProt Q9UBF8); conditions: Compound concentration 1000.0 nM
[3] = target: Tyrosine-protein kinase JAK3 (Homo sapiens) (UniProt P52333); conditions: Compound concentration 1000.0 nM
Sequence of Tyrosine-protein kinase JAK3 (Homo sapiens) (P52333 whole entry): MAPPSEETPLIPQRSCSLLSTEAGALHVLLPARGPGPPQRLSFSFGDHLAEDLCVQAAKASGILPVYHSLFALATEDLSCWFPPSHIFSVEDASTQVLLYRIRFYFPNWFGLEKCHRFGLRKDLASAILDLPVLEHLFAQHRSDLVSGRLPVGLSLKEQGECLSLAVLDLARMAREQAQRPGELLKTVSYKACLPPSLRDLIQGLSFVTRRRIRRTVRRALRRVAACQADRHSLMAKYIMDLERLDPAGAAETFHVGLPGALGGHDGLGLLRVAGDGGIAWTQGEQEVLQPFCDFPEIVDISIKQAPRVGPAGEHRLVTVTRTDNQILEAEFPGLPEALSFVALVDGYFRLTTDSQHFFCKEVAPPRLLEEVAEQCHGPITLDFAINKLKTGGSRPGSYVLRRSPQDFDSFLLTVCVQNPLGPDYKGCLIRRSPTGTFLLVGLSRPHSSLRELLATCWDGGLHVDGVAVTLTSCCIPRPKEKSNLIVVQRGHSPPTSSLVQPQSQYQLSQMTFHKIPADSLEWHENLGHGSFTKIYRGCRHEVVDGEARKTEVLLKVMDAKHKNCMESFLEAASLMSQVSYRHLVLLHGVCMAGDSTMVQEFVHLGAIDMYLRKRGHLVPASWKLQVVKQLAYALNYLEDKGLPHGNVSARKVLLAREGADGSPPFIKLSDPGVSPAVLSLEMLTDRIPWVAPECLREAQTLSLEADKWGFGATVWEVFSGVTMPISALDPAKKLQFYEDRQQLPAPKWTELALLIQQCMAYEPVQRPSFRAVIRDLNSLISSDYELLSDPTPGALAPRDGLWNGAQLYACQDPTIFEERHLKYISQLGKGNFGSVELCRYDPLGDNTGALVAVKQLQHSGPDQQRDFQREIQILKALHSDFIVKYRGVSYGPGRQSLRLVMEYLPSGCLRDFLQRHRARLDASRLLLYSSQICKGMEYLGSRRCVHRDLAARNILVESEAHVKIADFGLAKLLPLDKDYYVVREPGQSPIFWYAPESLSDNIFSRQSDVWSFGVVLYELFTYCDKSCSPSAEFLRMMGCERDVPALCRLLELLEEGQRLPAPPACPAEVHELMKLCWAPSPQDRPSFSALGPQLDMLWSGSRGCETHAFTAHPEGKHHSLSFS

[4] = target: Tyrosine-protein kinase Fer (Homo sapiens) (UniProt P16591); conditions: Compound concentration 1000.0 nM
[5] = target: T1, 5-hydroxytryptamine receptor 3A (Homo sapiens) (UniProt P46098); conditions: Compound concentration 10.0 uM
T1 sequence (whole entry): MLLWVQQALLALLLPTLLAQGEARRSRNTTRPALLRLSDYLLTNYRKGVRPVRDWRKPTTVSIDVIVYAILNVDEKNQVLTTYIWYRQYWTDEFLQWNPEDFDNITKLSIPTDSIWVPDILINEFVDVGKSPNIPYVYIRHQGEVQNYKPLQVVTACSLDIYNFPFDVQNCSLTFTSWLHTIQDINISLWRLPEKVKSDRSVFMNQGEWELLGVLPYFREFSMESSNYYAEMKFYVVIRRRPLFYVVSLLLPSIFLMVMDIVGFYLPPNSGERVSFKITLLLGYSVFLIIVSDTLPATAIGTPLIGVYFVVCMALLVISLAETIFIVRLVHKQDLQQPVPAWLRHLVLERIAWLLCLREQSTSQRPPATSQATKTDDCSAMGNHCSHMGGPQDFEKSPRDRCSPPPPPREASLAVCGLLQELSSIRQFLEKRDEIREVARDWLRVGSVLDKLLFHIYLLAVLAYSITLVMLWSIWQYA

[6] = target: Mitogen-activated protein kinase 3 (Homo sapiens) (UniProt P27361); conditions: Compound concentration 1000.0 nM
[7] = target: Ribosomal protein S6 kinase alpha-1 (Homo sapiens) (UniProt Q15418); conditions: Compound concentration 1000.0 nM
[8] = target: Ephrin type-B receptor 4 (Homo sapiens) (UniProt P54760); conditions: Compound concentration 1000.0 nM
[9] = target: Tyrosine-protein kinase Fyn (Homo sapiens) (UniProt P06241); conditions: Compound concentration 1000.0 nM
[10] = target: Serine/threonine-protein kinase STK11 (Homo sapiens) (UniProt Q15831); conditions: Compound concentration 1000.0 nM
[11] = target: Serine/threonine-protein kinase Nek7 (Homo sapiens) (UniProt Q8TDX7); conditions: Compound concentration 1000.0 nM
Sequence of Serine/threonine-protein kinase Nek7 (Homo sapiens) (Q8TDX7 whole entry, looked up): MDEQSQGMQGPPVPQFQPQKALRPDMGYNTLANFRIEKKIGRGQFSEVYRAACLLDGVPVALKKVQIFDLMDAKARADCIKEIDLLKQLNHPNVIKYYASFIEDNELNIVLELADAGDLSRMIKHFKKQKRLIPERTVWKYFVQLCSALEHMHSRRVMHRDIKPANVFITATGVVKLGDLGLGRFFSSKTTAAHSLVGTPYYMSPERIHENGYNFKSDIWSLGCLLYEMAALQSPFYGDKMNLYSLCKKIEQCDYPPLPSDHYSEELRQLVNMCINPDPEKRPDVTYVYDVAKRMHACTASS

[12] = test system: Tyrosine-protein kinase ABL1 (Homo sapiens), P00519 [H396P]; conditions: Compound concentration 1000.0 nM
[13] = target: Mitogen-activated protein kinase kinase kinase 7 (Homo sapiens) (UniProt O43318); conditions: Compound concentration 1000.0 nM
[14] = target: Serine/threonine-protein kinase Nek10 (Homo sapiens) (UniProt Q6ZWH5); conditions: Compound concentration 1000.0 nM
[15] = target: Mitogen-activated protein kinase kinase kinase 4 (Homo sapiens) (UniProt Q9Y6R4); conditions: Compound concentration 1000.0 nM
Sequence of Mitogen-activated protein kinase kinase kinase 4 (Homo sapiens) (Q9Y6R4 whole entry): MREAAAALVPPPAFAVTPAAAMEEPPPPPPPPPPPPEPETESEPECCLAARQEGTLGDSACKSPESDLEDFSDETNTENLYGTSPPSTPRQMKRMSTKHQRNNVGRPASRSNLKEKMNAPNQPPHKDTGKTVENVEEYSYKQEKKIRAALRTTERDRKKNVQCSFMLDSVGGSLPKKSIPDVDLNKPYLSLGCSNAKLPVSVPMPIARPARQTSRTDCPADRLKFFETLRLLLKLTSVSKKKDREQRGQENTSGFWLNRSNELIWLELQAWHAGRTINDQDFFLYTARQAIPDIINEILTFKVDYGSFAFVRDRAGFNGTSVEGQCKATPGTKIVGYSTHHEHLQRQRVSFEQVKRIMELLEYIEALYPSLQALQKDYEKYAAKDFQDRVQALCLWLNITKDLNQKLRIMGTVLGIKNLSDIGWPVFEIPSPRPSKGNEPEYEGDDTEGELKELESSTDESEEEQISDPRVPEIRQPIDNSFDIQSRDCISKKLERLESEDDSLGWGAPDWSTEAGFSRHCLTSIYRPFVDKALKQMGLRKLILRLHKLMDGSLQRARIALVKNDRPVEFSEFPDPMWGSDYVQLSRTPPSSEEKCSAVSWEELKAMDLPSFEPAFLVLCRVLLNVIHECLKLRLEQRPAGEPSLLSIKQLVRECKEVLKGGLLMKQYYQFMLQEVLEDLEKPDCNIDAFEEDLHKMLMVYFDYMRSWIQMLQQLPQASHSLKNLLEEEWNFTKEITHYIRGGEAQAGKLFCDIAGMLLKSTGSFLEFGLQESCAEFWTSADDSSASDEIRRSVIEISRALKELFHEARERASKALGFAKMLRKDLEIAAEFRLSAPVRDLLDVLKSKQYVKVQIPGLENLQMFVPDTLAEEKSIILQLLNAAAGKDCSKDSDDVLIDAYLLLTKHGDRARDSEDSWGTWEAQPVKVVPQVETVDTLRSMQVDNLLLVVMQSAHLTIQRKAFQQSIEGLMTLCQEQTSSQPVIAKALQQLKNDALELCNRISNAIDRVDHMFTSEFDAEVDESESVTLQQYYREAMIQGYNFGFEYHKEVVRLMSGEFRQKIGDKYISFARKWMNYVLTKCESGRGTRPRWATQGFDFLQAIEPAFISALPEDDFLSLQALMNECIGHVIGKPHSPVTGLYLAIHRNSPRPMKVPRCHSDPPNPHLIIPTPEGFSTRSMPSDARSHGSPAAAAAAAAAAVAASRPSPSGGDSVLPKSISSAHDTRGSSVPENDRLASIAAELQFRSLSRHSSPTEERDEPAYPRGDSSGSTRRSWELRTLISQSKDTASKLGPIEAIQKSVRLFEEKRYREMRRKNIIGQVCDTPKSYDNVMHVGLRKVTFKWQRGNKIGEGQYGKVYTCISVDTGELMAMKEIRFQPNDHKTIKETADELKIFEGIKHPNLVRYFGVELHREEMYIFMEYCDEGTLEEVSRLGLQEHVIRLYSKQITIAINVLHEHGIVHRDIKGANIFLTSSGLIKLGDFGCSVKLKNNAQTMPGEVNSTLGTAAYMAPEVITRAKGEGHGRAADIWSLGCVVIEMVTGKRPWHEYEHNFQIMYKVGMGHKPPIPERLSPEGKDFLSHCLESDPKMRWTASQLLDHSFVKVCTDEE

[16] = target: Mitogen-activated protein kinase 9 (Homo sapiens) (UniProt P45984); conditions: Compound concentration 1000.0 nM
[17] = target: Tyrosine-protein kinase JAK2 (Homo sapiens) (UniProt O60674); conditions: Compound concentration 1000.0 nM
[18] = target: Macrophage colony-stimulating factor 1 receptor (Homo sapiens) (UniProt P07333); conditions: Compound concentration 1000.0 nM
[19] = target: Dual specificity protein kinase CLK3 (Homo sapiens) (UniProt P49761); conditions: Compound concentration 1000.0 nM
Sequence of Dual specificity protein kinase CLK3 (Homo sapiens) (P49761 whole entry, looked up): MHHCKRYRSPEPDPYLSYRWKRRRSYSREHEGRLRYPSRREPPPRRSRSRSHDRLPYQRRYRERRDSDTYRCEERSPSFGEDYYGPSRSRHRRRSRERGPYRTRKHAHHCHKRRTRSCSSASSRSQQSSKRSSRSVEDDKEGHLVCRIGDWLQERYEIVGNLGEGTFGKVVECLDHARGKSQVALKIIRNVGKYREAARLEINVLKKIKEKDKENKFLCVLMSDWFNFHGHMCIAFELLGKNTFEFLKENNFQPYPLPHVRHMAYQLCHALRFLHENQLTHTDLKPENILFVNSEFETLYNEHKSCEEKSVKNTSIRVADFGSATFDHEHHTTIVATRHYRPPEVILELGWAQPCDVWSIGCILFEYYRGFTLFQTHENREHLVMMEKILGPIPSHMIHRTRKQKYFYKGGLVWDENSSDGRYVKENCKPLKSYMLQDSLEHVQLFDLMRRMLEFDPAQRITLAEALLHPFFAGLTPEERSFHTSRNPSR

[20] = test system: Receptor-type tyrosine-protein kinase FLT3 (Homo sapiens), P36888 [N841I]; conditions: Compound concentration 1000.0 nM
[21] = target: Serine/threonine-protein kinase SIK1 (Homo sapiens) (UniProt P57059); conditions: Compound concentration 1000.0 nM
[22] = test system: Tyrosine-protein kinase ABL1 (Homo sapiens), P00519 [E255K]; conditions: Compound concentration 1000.0 nM
[23] = target: Ephrin type-A receptor 3 (Homo sapiens) (UniProt P29320); conditions: Compound concentration 1000.0 nM
[24] = target: cAMP-dependent protein kinase catalytic subunit beta (Homo sapiens) (UniProt P22694); conditions: Compound concentration 1000.0 nM
[25] = target: Dual specificity mitogen-activated protein kinase kinase 7 (Homo sapiens) (UniProt O14733); conditions: Compound concentration 1000.0 nM
[26] = target: Serine/threonine-protein kinase 17A (Homo sapiens) (UniProt Q9UEE5); conditions: Compound concentration 1000.0 nM
[27] = target: Histamine H1 receptor (Homo sapiens) (UniProt P35367); conditions: Compound concentration 10.0 uM
[28] = target: Serine/threonine-protein kinase RIO2 (Homo sapiens) (UniProt Q9BVS4); conditions: Compound concentration 1000.0 nM
[29] = test system: Phosphatidylinositol 4,5-bisphosphate 3-kinase catalytic subunit alpha isoform (Homo sapiens), P42336 [M1043I]; conditions: Compound concentration 1000.0 nM
[30] = test system: Epidermal growth factor receptor (Homo sapiens), P00533 [L858R,T790M]; conditions: Compound concentration 1000.0 nM
[31] = target: Tyrosine-protein kinase Srms (Homo sapiens) (UniProt Q9H3Y6); conditions: Compound concentration 1000.0 nM
Sequence of Tyrosine-protein kinase Srms (Homo sapiens) (Q9H3Y6 whole entry): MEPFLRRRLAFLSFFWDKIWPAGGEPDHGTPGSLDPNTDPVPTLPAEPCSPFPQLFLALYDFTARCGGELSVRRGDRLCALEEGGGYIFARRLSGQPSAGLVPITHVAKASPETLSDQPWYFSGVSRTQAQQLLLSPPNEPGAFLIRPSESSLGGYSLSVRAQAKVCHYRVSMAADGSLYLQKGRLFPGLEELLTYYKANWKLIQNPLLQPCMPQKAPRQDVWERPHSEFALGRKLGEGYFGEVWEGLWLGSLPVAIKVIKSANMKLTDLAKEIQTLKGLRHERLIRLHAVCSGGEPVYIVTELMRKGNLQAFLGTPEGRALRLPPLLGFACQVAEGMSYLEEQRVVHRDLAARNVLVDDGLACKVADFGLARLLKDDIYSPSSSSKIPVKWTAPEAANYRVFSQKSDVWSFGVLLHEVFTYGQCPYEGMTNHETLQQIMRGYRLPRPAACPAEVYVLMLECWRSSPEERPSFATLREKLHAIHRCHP

[32] = target: Dual specificity mitogen-activated protein kinase kinase 3 (Homo sapiens) (UniProt P46734); conditions: Compound concentration 1000.0 nM
[33] = target: Dual specificity protein kinase CLK4 (Homo sapiens) (UniProt Q9HAZ1); conditions: Compound concentration 1000.0 nM
Sequence of Dual specificity protein kinase CLK4 (Homo sapiens) (Q9HAZ1 whole entry, looked up): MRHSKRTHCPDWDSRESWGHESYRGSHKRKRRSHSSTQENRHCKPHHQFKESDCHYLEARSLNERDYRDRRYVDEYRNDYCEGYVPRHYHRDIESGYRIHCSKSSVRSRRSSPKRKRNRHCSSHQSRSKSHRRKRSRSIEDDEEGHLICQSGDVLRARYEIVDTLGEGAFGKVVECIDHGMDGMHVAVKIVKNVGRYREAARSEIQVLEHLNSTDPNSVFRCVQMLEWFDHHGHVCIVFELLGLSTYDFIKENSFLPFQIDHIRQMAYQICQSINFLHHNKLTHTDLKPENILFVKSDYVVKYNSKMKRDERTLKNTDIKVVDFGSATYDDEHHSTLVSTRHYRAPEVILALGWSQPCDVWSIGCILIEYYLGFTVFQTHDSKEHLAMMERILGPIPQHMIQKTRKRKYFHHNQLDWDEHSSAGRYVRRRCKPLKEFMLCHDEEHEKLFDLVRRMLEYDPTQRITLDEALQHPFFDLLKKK

[34] = target: Calcium/calmodulin-dependent protein kinase type 1B (Homo sapiens) (UniProt Q6P2M8); conditions: Compound concentration 1000.0 nM
Sequence of Calcium/calmodulin-dependent protein kinase type 1B (Homo sapiens) (Q6P2M8 whole entry): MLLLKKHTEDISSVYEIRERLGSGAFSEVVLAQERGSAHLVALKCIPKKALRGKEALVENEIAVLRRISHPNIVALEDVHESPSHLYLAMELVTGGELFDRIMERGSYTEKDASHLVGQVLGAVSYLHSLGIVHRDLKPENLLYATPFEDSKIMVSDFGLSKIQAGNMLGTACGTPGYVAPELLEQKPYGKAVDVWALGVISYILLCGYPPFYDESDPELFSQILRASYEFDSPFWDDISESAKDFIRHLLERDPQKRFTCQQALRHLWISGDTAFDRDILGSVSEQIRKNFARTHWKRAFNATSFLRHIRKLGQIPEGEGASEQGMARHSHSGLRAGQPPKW

[35] = target: Receptor-type tyrosine-protein kinase FLT3 (Homo sapiens) (UniProt P36888); conditions: Compound concentration 1000.0 nM
[36] = test system: Phosphatidylinositol 4,5-bisphosphate 3-kinase catalytic subunit alpha isoform (Homo sapiens), P42336 [E545A]; conditions: Compound concentration 1000.0 nM
[37] = test system: Mast/stem cell growth factor receptor Kit (Homo sapiens), P10721 [D816V]; conditions: Compound concentration 1000.0 nM
[38] = target: Myosin light chain kinase 2, skeletal/cardiac muscle (Homo sapiens) (UniProt Q9H1R3); conditions: Compound concentration 1000.0 nM

CC(=O)N1CCC(c2ccc(C(=O)NC3=NCCN3)cc2C(F)(F)F)CC1 [BI 0054]
inactive: residual activity [1] 85% | residual activity [2] 91% | residual activity [3] 100% | residual activity [4] 93% | inhibition [5] -4.49% | residual activity [6] 100% | residual activity [7] 100% | residual activity [8] 100% | residual activity [9] 76% | residual activity [10] 71% | residual activity [11] 100% | residual activity [12] 100% | residual activity [13] 100% | residual activity [14] 93% | residual activity [15] 81% | residual activity [16] 92% | residual activity [17] 100% | residual activity [18] 100% | residual activity [19] 100% | residual activity [20] 94% | residual activity [21] 100% | residual activity [22] 82% | residual activity [23] 95% | residual activity [24] 100% | residual activity [25] 100% | residual activity [26] 100% | inhibition [27] -0.162% | residual activity [28] 93% | residual activity [29] 100% | residual activity [30] 100% | residual activity [31] 89% | residual activity [32] 87% | residual activity [33] 100% | residual activity [34] 88% | residual activity [35] 100% | residual activity [36] 100% | residual activity [37] 91% | residual activity [38] 100%

CC(=O)N1CCC(c2ccc(C(=O)NC(=N)N)cc2C(F)(F)F)CC1 [BI 9627]
inactive: residual activity [1] 100% | residual activity [2] 100% | residual activity [3] 100% | residual activity [4] 96% | inhibition [5] -6.68% | residual activity [6] 100% | residual activity [7] 100% | residual activity [8] 100% | residual activity [9] 100% | residual activity [10] 73% | residual activity [11] 100% | residual activity [12] 86% | residual activity [13] 100% | residual activity [14] 92% | residual activity [15] 98% | residual activity [16] 95% | residual activity [17] 100% | residual activity [18] 100% | residual activity [19] 100% | residual activity [20] 100% | residual activity [21] 100% | residual activity [22] 100% | residual activity [23] 100% | residual activity [24] 100% | residual activity [25] 86% | residual activity [26] 100% | inhibition [27] 7.6% | residual activity [28] 100% | residual activity [29] 100% | residual activity [30] 100% | residual activity [31] 80% | residual activity [32] 100% | residual activity [33] 100% | residual activity [34] 100% | residual activity [35] 100% | residual activity [36] 100% | residual activity [37] 100% | residual activity [38] 85%
